Earlier results in article PMC2751796 (Pharmacology & therapeutics, 2009).
Where two headings read alike, the source gives them in different places.

Columns and labels:
[1] = test system: MRPs, organic anion transporters; conditions: ref Deguchi et al., 2000; cited from earlier work
[2] = target: P-gp (Rattus norvegicus, UniProt Q6PSM0); conditions: cited from earlier work; for Increase in brain-to-plasma AUC ratio with elacridar: studies in rats (so in the source), ref Barraud de Lagerie et al., 2004
[3] = test system: P-gp; conditions: read-out: Reported EC50; ref Ekins et al., 2002; Rautio et al., 2006; cited from earlier work
[4] = cited from earlier work
[5] = test system: P-gp; conditions: cited from earlier work; for Fold change in brain uptake ratio in inhibitor-treated vs. control mice / Fold change in brain uptake ratio in inhibitor-treated vs. control mice (value corrected for drug in vasculature): Conc.
[6] = test system: P-gp; conditions: four adult rhesus monkeys; ref Warren et al., 2000; cited from earlier work
[7] = cited from earlier work; remark: listed apart in the source
[8] = test system: P-gp; conditions: ref Hugnet et al., 1996; Mealey et al., 2001, 2003, 2008; Sartor et al., 2004; cited from earlier work
[9] = test system: P-gp; conditions: cited from earlier work
[10] = cited from earlier work; for Increase of plasma AUC with ritonavir (200 mg twice daily, 5.5 days): ref Mukwaya et al., 2005
[11] = mice, cited from earlier work
[12] = test system: hPXR; conditions: ref Bauer et al., 2006, cited from earlier work
[13] = test system: P-gp; conditions: parameter not given; ref Saito et al., 2001; cited from earlier work
[14] = test system: P-gp and BCRP; conditions: ref Oostendorp et al., 2009; Chen et al., 2008; cited from earlier work
[15] = test system: Bcrp; conditions: mouse, in vivo; cited from earlier work
[16] = 16 mg, eight healthy subjects, ref Sadeque et al., 2000
[17] = Valspodar (12.5 mg/kg, IV), ref Choo et al., 2000
[18] = Verapamil (12.5 mg/kg, IV), ref Choo et al., 2000
[19] = Zosuquidar (50 mg/kg, IV), ref Choo et al., 2000

P-gp (Rattus norvegicus, UniProt Q6PSM0), sequence (Q6PSM0 1-1272): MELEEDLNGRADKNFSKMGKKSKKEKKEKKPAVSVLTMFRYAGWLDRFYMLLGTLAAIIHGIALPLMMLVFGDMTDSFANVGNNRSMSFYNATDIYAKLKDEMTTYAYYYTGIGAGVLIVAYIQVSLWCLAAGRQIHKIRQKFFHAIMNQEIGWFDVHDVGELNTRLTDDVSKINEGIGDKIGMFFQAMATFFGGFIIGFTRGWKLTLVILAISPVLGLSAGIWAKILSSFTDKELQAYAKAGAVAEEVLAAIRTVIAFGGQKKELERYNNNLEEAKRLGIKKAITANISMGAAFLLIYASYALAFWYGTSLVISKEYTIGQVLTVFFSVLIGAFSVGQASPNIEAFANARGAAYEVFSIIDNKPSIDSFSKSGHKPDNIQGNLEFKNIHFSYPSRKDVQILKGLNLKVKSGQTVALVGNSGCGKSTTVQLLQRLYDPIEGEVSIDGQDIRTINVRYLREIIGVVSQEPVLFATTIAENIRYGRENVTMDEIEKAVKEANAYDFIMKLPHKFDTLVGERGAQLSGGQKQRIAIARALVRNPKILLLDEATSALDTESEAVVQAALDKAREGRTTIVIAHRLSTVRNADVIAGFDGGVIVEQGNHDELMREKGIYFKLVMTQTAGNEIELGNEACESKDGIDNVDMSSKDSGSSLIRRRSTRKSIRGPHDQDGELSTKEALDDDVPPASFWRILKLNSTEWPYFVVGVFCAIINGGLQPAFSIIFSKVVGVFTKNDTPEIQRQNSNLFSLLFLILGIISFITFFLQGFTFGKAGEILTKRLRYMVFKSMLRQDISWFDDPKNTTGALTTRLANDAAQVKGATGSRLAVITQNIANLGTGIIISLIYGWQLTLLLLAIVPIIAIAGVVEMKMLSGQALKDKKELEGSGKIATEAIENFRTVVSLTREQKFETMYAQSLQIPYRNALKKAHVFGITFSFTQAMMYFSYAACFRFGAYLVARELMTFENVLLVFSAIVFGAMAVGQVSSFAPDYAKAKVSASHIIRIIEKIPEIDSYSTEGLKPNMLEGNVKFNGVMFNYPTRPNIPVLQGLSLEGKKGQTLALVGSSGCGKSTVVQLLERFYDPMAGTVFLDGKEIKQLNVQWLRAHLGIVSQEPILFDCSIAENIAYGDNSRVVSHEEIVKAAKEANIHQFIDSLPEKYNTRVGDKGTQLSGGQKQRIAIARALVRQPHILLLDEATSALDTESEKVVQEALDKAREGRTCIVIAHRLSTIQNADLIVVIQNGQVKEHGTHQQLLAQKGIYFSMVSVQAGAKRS

## Sc1ncnc2nc[nH]c12 [6-mercaptopurine]
[1]
  Increase of brain-to-plasma concentration ratio with probenecid in rats: up to 4.4 fold

## O[C@@H](c1cc(C(F)(F)F)nc2c(C(F)(F)F)cccc12)[C@H]1CCCCN1 [(+) mefloquine, mefloquine]
[2]
  Increase in brain-to-plasma AUC ratio with elacridar: 2.5 times

## O[C@H](c1cc(C(F)(F)F)nc2c(C(F)(F)F)cccc12)[C@@H]1CCCCN1 [(-) mefloquine, mefloquine]
[2]
  Increase in brain-to-plasma AUC ratio with elacridar: 1.5 times

## O=c1[nH]cnc2c1ncn2[C@H]1CC[C@@H](CO)O1 [Didanosine]
[4]; ref Tuntland et al., 1994
  Precipitant drug concentration (plasma): 0.9 to 11.3 µg/mL

## CC(=O)O[C@@]12CO[C@@H]1C[C@H](O)[C@@]1(C)C(=O)[C@H](O)C3=C(C)[C@@H](OC(=O)[C@H](O)[C@@H](NC(=O)OC(C)(C)C)c4ccccc4)C[C@@](O)([C@@H](OC(=O)c4ccccc4)[C@H]21)C3(C)C [Docetaxel]
[5]; ref Kemper et al., 2004c
  Increase in brain uptake by single oral doses of valspodar and elacridar: up to 2.6 fold

## COc1cccc2c1C(=O)c1c(O)c3c(c(O)c1C2=O)C[C@@](O)(C(=O)CO)C[C@@H]3O[C@H]1C[C@H](N)[C@H](O)[C@H](C)O1 [Doxorubicin]
[6]
  CSF concentrations alone or with intravenous cyclosporine: below the limit of detection
[7]; ref Warren et al., 2000
  CNS distribution in untreated subjects (ventricular CSF / plasma conc. ratio): < 0.05 (ventricular CSF / plasma conc. ratio)
[8]
  Effect of exposure in Collie and other dog breeds that naturally lack P-gp: neurological symptoms

## CC[C@H]1OC(=O)[C@H](C)[C@@H](O[C@H]2C[C@@](C)(OC)[C@@H](O)[C@H](C)O2)[C@H](C)[C@@H](O[C@@H]2O[C@H](C)C[C@H](N(C)C)[C@H]2O)[C@](C)(O)C[C@@H](C)C(=O)[C@H](C)[C@@H](O)[C@]1(C)O [Erythromycin]
[3]
  EC50: 38 µM

## Cc1ccc(NC(=O)c2ccc(CN3CCN(C)CC3)cc2)cc1Nc1nccc(-c2cccnc2)n1 [Imatinib]
[5]; ref Bihorel et al., 2007
  Enhancement of brain uptake by valspodar or zosuquidar: up to 3 fold
[5]; ref Breedveld et al., 2005, Oostendorp et al., 2009
  Increase in brain distribution with elacridar in WT mice: up to 5 fold

## CC(C)(C)NC(=O)[C@@H]1CN(Cc2cccnc2)CCN1C[C@@H](O)C[C@@H](Cc1ccccc1)C(=O)N[C@H]1c2ccccc2C[C@H]1O [Indinavir]
[3]
  EC50: > 50 µM

## CCC(C)n1ncn(-c2ccc(N3CCN(c4ccc(OCC5COC(Cn6cncn6)(c6ccc(Cl)cc6Cl)O5)cc4)CC3)cc2)c1=O (centres unmarked) [Itraconazole]
[3]
  EC50: 0.5 µM

## CN(C)C(=O)C(CCN1CCC(O)(c2ccc(Cl)cc2)CC1)(c1ccccc1)c1ccccc1 [Loperamide]
[9]; [16]
  Opioid-induced respiratory depression, given alone: did not produce respiratory depression
  Opioid-induced respiratory depression, with quinidine sulfate (600 mg): respiratory depression occurred
[9]; loperamide 32 mg orally, nine healthy volunteers, ref Kurnik et al., 2008
  Effect of tariquidar (150 mg, iv) on plasma concentrations and CNS effects: did not significantly affect
[8]
  Effect of exposure in Collie and other dog breeds that naturally lack P-gp: neurological symptoms
[10]; 12 healthy volunteers, ref Tayrouz et al., 2001
  Increase of plasma AUC with 600 mg ritonavir: 2.7 fold
[10]
  Increase of plasma AUC with ritonavir (200 mg twice daily, 5.5 days): 2.2 fold

## CNC(=O)C(CCN1CCC(O)(c2ccc(Cl)cc2)CC1)(c1ccccc1)c1ccccc1 [N-desmethyl-loperamide]
[10]
  Increase of plasma AUC with ritonavir (200 mg twice daily, 5.5 days): 1.4 fold

## Cc1c(O)cccc1C(=O)N[C@@H](CSc1ccccc1)[C@H](O)CN1C[C@H]2CCCC[C@H]2C[C@H]1C(=O)NC(C)(C)C [Nelfinavir]
[3]
  EC50: 1.4 to 44 µM
[5]; Elacridar (10 mg/kg, IV), ref Salama et al., 2005, Giri et al., 2008
  Fold change in brain uptake ratio in inhibitor-treated vs. control mice: 8.7 fold
[5]; Elacridar (10 mg/kg, IV), ref Salama et al., 2005
  Fold change in brain uptake ratio in inhibitor-treated vs. control mice (value corrected for drug in vasculature): 8.9 fold
[5]; [17]
  Fold change in brain uptake ratio in inhibitor-treated vs. control mice: 10.3 fold
  Fold change in brain uptake ratio in inhibitor-treated vs. control mice (value corrected for drug in vasculature): 13.3 fold
[5]; [18]
  Fold change in brain uptake ratio in inhibitor-treated vs. control mice: 1.0 (1.0), Conc. fold
  Fold change in brain uptake ratio in inhibitor-treated vs. control mice (value corrected for drug in vasculature): 1.0 (1.0), Conc. fold
[5]; [19]
  Fold change in brain uptake ratio in inhibitor-treated vs. control mice: 18.1 fold
  Fold change in brain uptake ratio in inhibitor-treated vs. control mice (value corrected for drug in vasculature): 25.1 fold
[5]; Zosuquidar (50 mg/kg, IV), ref Choo et al., 2000, listed as nelfinavir
  Fold change in brain uptake ratio in inhibitor-treated vs. control mice: up to 18 fold
[2]; dose-dependent, ref Anderson et al., 2006
  Increase in brain uptake with zosuquidar in rats: ≤ 29 fold
[7]; ref Kaddoumi et al., 2007, Eyal, et al., 2009
  CNS distribution in untreated subjects (brain / plasma conc. ratio): 0.04
[7]; ref Kaddoumi et al., 2007
  CNS distribution in untreated subjects (lumbar CSF / plasma, conc. ratio): 0.006

## CC(=O)O[C@H]1C(=O)[C@@]2(C)[C@H]([C@H](OC(=O)c3ccccc3)[C@]3(O)C[C@H](OC(=O)[C@H](O)[C@@H](NC(=O)c4ccccc4)c4ccccc4)C(C)=C1C3(C)C)[C@]1(OC(C)=O)CO[C@@H]1C[C@@H]2O [Paclitaxel]
[5]; elacridar plasma concentrations <900 ng/ml, ref Kemper et al., 2003
  Increase in brain uptake with elacridar: 5 fold

## C=C[C@H]1C[N@@]2CC[C@H]1C[C@@H]2[C@@H](O)c1ccnc2ccc(OC)cc12 [Quinidine]
[3]
  EC50: 2 to 55 µM
[11]; 100 mg/kg, IP, ref Fromm et al., 1999
  Inhibitor concentration (plasma): ~2 µM
[10]; ref Raderer & Scheithauer, 1993
  Total concentration achievable in humans treated for tumors: 4.5 to 5.6 µM

## CO[C@H]1/C=C/O[C@@]2(C)Oc3c(C)c(O)c4c(O)c(c(/C=N/N5CCN(C)CC5)c(O)c4c3C2=O)NC(=O)/C(C)=C\C=C\[C@H](C)[C@H](O)[C@@H](C)[C@@H](O)[C@@H](C)[C@H](OC(C)=O)[C@@H]1C [Rifampin]
[12]; 50 mg/kg, oral, for 3 days
  Predicted average steady state unbound plasma concentration: 0.34 µg/mL

## CC(C)(C)NC(=O)[C@@H]1C[C@@H]2CCCC[C@@H]2CN1C[C@@H](O)[C@H](Cc1ccccc1)NC(=O)[C@H](CC(N)=O)NC(=O)c1ccc2ccccc2n1 [Saquinavir]
[3]
  EC50: 6.5 µM
[5]; [19]
  Fold change in brain uptake ratio in inhibitor-treated vs. control mice: ∼ 3.0, Conc. fold

## C/C=C/C[C@@H](C)C(=O)[C@H]1C(=O)N[C@@H](C(C)C)C(=O)N(C)CC(=O)N(C)[C@@H](CC(C)C)C(=O)N[C@@H](C(C)C)C(=O)N(C)[C@@H](CC(C)C)C(=O)N[C@@H](C)C(=O)N[C@H](C)C(=O)N(C)[C@@H](CC(C)C)C(=O)N(C)[C@@H](CC(C)C)C(=O)N(C)[C@@H](C(C)C)C(=O)N1C [Valspodar]
[11]; 50 mg/kg, PO, ref Mayer et al., 1997
  Inhibitor concentration (brain): 250 ng/g

## CC[C@]1(O)C[C@@H]2CN(CCc3c([nH]c4ccccc34)[C@@](C(=O)OC)(c3cc4c(cc3OC)N(C)[C@H]3[C@@](O)(C(=O)OC)[C@H](OC(C)=O)[C@]5(CC)C=CCN6CC[C@]43[C@@H]65)C2)C1 [Vinblastine]
[5]; ref Cisternino et al., 2001
  Increase in brain uptake by valspodar and elacridar: 3 fold
[8]
  Effect of exposure in Collie and other dog breeds that naturally lack P-gp: neurological symptoms
[13]
  Fold change in brain uptake ratio in P-gp KO vs. control mice: 3.3 fold
  Fold change in brain uptake ratio in P-gp KO vs. control mice (value corrected for drug in vasculature): 3.4 fold

## CC[C@]1(O)C[C@H]2CN(CCc3c([nH]c4ccccc34)[C@@](C(=O)OC)(c3cc4c(cc3OC)N(C=O)[C@H]3[C@@](O)(C(=O)OC)[C@H](OC(C)=O)[C@]5(CC)C=CCN6CC[C@]43[C@@H]65)C2)C1 [Vincristine]
[8]
  Effect of exposure in Collie and other dog breeds that naturally lack P-gp: neurological symptoms

## Cc1cn([C@H]2C[C@H](N=[N+]=[N-])[C@@H](CO)O2)c(=O)[nH]c1=O [Zidovudine]
[4]; ref Tuntland et al., 1994
  Precipitant drug concentration (CSF): 0.1 to 2.2 µg/mL
  Precipitant drug concentration (plasma): 0.5 to 11.2 µg/mL

## O[C@@H](COc1cccc2ncccc12)CN1CCN([C@@H]2c3ccccc3[C@@H]3[C@H](c4ccccc42)C3(F)F)CC1 [Zosuquidar]
[4]; in vivo
  Precipitant drug concentration (CSF): 0.0085 µg/mL

## Cc1nc(Nc2ncc(C(=O)Nc3c(C)cccc3Cl)s2)cc(N2CCN(CCO)CC2)n1 [dasatinib]
[14]
  Increase of brain-to-plasma concentration ratio in triple KO mice: 10 fold

## CCC(=O)C(CC(C)N(C)C)(c1ccccc1)c1ccccc1 (centres unmarked) [methadone]
[12]; hPXR transgenic mice, vs. vehicle
  Decrease of antinociceptive effect after rifampin: 70%

## CCCN(CCC)S(=O)(=O)c1ccc(C(=O)O)cc1 [probenecid]
[10]; ref Bode et al., 1980
  Probenecid CSF concentrations at 2500 mg/m^2: 2.4 to 3.4 µg/mL

## CC(C)(C)c1ccc(C(O)CCCN2CCC(C(O)(c3ccccc3)c3ccccc3)CC2)cc1 (centres unmarked) [terfenadine]
[2]; ref Obradovic et al., 2007
  Increase in brain uptake with cyclosporine in rats: several-fold

## CC[C@@]1(O)C(=O)OCc2c1cc1n(c2=O)Cc2cc3c(CN(C)C)c(O)ccc3nc2-1 [topotecan lactone]
[15]
  Decrease of ventricular CSF-to-plasma AUC ratio with gefitinib: 17%

## [^18F]-Paclitaxel
[7]; ref Kurdziel et al., 2003
  CNS distribution in untreated subjects (brain / metabolite-corrected plasma AUC ratio): 0.05 (brain / metabolite-corrected plasma AUC ratio)
